This test has as its target ScoE (Streptomyces coeruleorubidus, UniProt A0A3B6UEU3). Conditions: alpha-KG, Fe(II).

The values that follow come from PMC8986608 (Journal of the American Chemical Society, 2022).

For orientation: Km means the substrate concentration at which the rate is half of its maximum.

`C[C@H](CC(=O)O)/N=C/C(=O)O` [compound 2, imine CABA]: the Km came to 369 ± 40 µM.
